Article PMC11990524, “Design and Synthesis of Novel 6-(Substituted phenyl)-[1,3]dioxolo[4′,5′:4,5]benzo[1,2-d]thiazole Compounds as Tyrosinase Inhibitors: In Vitro and In Vivo Insights” (Molecules, 2025)
Read-outs that look alike come from different tables or passages of the source.

Columns and labels:
[1] = test system: zebrafish embryos; test: In vivo pigmentation assay using zebrafish embryos; design: species or system Danio rerio; conditions: kojic acid 20 mM; treated at 24 hpf, measured at 72 hpf
Protocol: To identify whether the synthesized compounds could exert anti-melanogenic effects in vivo, in vivo experiments were performed using zebrafish embryos. Freely obtained zebrafish embryos were transferred to a culture dish containing an E3-MB solution and incubated at 28 °C until use. For a preliminary experiment, zebrafish embryos were dechorionated using Pronase® (Sigma-Aldrich) at 20 h post fertilization (hpf), and each compound at 0.1 mM was exposed to five zebrafish embryos in E3 solution at 24 hpf. The depigmentation abilities were compared at 72 hpf to select the compounds used in the main experiments. From the preliminary experiments (n = 1), five compounds (2, 5, and 11–13) were selected for the main depigmentation experiments (n = 3). As in the preliminary experiment, the obtained zebrafish embryos were dechorionated at 20 hpf, and each selected compound (0.1 mM) was administered to six zebrafish embryos in the E3 solution at 24 hpf. The pigmentation of zebrafish larvae was photographed and measured in dorsal and lateral views at 72 hpf using an ATTO CS analyzer (ATTO, Tokyo, Japan). […] Pigmentation of zebrafish larvae was imaged using the SMZ745T microscope (Nikon, Tokyo, Japan), and the pigmented areas were measured in dorsal and lateral views at 72 hpf using an ATTO CS analyzer (ATTO, Tokyo, Japan).

[2] = test system: B16F10 cells; test: Cellular melanin content assay using B16F10 cells; format: cell-based, murine
Protocol: After 72 h of incubation, the melanin content was evaluated by measuring the optical density at 405 nm.
The plate was incubated in a CO2 incubator for 1 h. Each well was treated with stimulators (α-MSH and IBMX; 1 μM and 200 μM, respectively) and incubated in a CO2 incubator for 72 h. The incubated cells were rinsed twice with PBS (pH 7.4). 1N–NaOH solution (100 μL) was added to each well and warmed at 60 °C for 1 h. The lysates were transferred to each well of a 96-well plate. The optical density was measured at 405 nm.

[3] = biological target: T1, B16F10 cellular tyrosinase (Mus musculus, UniProt P11344); test: Cellular tyrosinase activity assay using B16F10 cells; format: cell-based, murine; conditions: 1, 2, and 5 μM, IBMX 200 μM plus α-MSH 1 μM, 72 h
T1 construct: endogenous in cells; host or cells: B16F10 murine cells, stimulated with α-MSH and IBMX
T1 sequence (P11344 19-533): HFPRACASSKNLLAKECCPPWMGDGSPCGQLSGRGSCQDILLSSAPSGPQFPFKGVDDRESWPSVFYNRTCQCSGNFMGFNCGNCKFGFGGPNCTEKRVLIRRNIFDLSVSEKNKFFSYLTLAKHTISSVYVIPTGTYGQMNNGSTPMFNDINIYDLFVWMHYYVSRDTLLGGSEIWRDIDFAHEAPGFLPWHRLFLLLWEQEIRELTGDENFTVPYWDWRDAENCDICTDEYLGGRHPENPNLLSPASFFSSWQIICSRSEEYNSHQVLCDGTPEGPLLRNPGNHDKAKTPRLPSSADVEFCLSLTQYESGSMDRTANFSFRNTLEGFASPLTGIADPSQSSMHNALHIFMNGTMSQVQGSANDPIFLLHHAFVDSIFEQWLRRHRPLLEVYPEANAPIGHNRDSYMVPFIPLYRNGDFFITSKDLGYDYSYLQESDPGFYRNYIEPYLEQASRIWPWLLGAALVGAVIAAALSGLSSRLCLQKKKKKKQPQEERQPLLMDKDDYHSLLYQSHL
Protocol: After 72 h of incubation, the B16F10 cellular tyrosinase inhibitory activity was evaluated by measuring the optical density at 475 nm.
To evaluate the effect of compounds 5 and 9 on cellular tyrosinase activity, B16F10 cells (5000 cells/well) were inoculated in a 6-well plate and cultured for 24 h under the same conditions as the cell culture. […] The plate was incubated in a 5% CO2 incubator maintained at 37 °C for 1 h. Each well was treated with stimulators (1 μM α-MSH [Alomone Labs^TM, Jerusalem, Israel] and 200 μM IBMX [Thermo Fisher, Rockford, IL, USA]) and incubated in a CO2 incubator for 72 h. The cells were rinsed twice with PBS (pH 7.4) and treated with 100 μL lysis buffer solution consisting of Triton X-100 (1%; 5 μL), phosphate buffer (50 mM; pH 6.5; 90 μL), and phenylmethanesulfonyl fluoride (2 mM; 5 μL). The lysates were placed for 30 min at −80 °C. After centrifuging at 10,000 g and 4 °C for 10 min, an aliquot (80 μL) of the supernatants was transferred to each well of a 96-well plate, and 20 μL of L-dopa solution (10 mM) was added to each well. The optical density at 475 nm was recorded every min for 10 min to determine cellular tyrosinase activity.

[4] = biological target: T2, mushroom tyrosinase (Agaricus bisporus, UniProt C7FF04); test: Kinetic analysis of mushroom tyrosinase (Lineweaver–Burk and Dixon plots); format: biochemical; design: purchased Sigma-Aldrich; conditions: substrate L-dopa
Protocol: Therefore, the mechanism of inhibition was investigated using mushroom tyrosinase. At various concentrations of L-dopa, the initial dopachrome production rate was investigated at four different concentrations of 5 (0, 20, 40, and 80 μM) and 9 (0, 0.5, 1.0, and 2.0 μM).
The Lineweaver–Burk plot for each compound was re-plotted by plotting the reciprocal of the initial dopachrome production rate vs. the […] to create a Dixon plot for each compound (Figure 3C,D for compounds 5 and 9, respectively). […] The absolute value of the x-coordinate of the merged point represents the inhibition constant (Ki), which indicates the potency of the inhibitor.
Kinetic analysis of mushroom tyrosinase was performed by recording the initial dopachrome formation rate in the presence of compounds 5 and 9. […] The optical density of dopachrome production in each well was recorded at 475 nm at 5 min intervals for 30 min. Compounds were tested at 80, 40, 20, and 0 μM for 5 and at 2, 1.0, 0.5, and 0 μM for 9, respectively. Potting the inverse of the substrate concentration vs. the reciprocal of the initial dopachrome production rate generated Lineweaver–Burk plots.
Target sequence in this assay (C7FF04 1-392): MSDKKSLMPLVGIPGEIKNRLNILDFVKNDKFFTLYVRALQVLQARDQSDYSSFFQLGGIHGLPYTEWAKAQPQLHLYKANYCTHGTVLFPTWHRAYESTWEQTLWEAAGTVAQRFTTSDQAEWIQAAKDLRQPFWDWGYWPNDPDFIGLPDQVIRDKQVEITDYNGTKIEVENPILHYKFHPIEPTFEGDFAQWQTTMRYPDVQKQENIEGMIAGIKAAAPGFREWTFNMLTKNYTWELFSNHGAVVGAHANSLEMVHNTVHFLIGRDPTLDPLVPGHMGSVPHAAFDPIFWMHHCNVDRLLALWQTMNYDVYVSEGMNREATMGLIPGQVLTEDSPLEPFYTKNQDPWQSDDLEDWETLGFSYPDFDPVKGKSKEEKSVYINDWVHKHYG

[5] = biological target: T2, mushroom tyrosinase; test: Mushroom tyrosinase inhibitory activity assay (L-dopa or L-tyrosine as substrate); format: biochemical; conditions: 50 μM, read-out: Inhibition (%, Mean ± SEM) at 50 μM (converted)
Protocol: In the inhibition experiments, L-dopa and L-tyrosine were used as enzyme substrates.
The plate was incubated at 37 °C for 30 min, and absorbance of dopachrome formation was recorded spectrophotometrically at 475 nm using a VersaMax® Elisa (VE) microplate reader (Molecular Devices, San Jose, CA, USA) to determine tyrosinase inhibition activity. A VE microplate reader was used in all subsequent experiments to measure optical density. All experiments were carried out independently three times.
Target sequence in this assay (C7FF04 2-392): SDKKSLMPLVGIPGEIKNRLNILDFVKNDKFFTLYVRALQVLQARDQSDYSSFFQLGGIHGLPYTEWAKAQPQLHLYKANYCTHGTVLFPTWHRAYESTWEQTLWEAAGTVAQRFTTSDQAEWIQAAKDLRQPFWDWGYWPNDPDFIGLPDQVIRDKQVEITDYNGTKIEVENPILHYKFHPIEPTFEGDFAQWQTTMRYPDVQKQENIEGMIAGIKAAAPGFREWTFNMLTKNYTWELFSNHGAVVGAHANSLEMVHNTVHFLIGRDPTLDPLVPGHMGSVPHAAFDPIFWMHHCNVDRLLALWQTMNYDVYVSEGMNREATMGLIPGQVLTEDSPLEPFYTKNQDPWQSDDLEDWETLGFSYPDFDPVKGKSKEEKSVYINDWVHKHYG

[6] = biological target: T3, B16F10 cell tyrosinase (Mus musculus, UniProt P11344); test: In situ cellular tyrosinase activity assay using B16F10 cells; format: cell-based, murine; conditions: 1, 2, and 5 μM, IBMX plus α-MSH, 72 h, L-dopa 2 h
T3 construct: endogenous in cells; host or cells: B16F10 murine cells, stimulated with α-MSH and IBMX
T3 sequence (P11344 19-533): T1 sequence (P11344 19-533)
Protocol: After 72 h of incubation, the cells were treated with an excessive amount of L-dopa for 2 h, and then the melanin-stained cells were photographed, and the pigmented areas of the cells were determined using an ATTO CS Analyzer (ATTO, Tokyo, Japan).
B16F10 (3 × 10^3 cells/well) cells in a 24-well plate were incubated for 24 h in a 5% CO2 incubator maintained at 37 °C. […] Stimulators (α-MSH and IBMX; 1 μM and 200 μM, respectively) were exposed to cells 1 h after treatment with the test sample, and the cells were incubated for 72 h in a 5% CO2 incubator. The cells were fixed for 40 min using paraformaldehyde solution (4%) (Sigma-Aldrich, St. Louis, MO, USA), washed with PBS (pH 7.4), and permeabilized for 2 min using Triton X-100 (0.1%). After washing twice with PBS, each well was exposed to L-dopa solution (500 μL; 2 mM). After incubation for 2 h, images of the cells stained with excess melanin were obtained using a camera connected to a microscope (Motic, Hong Kong).

[7] = test system: HaCaT cells; test: Cytotoxicity assay on HaCaT cells (EZ-Cytox); format: cell-based, human; conditions: 1, 2, 5, 10, and 20 μM, 24 h
Protocol: In addition to melanocytes, keratinocytes are the primary cells present in the epidermis. […] Each compound was treated at concentrations of 0, 1, 2, 5, 10, and 20 μM for 24 h, and cell viability was measured using the EZ-Cytox solution.
The effect of compounds 5 and 9 on cell viability of HaCaT and B16F10 cells was assessed using an EZ-Cytox solution (EZ-1000®, DoGenBio, Seoul, Republic of Korea). HaCaT (5 × 10^3 cells/well) and B16F10 (1 × 10^3 cells/well) cells were seeded in a 96-well plate, respectively, and cultured for 24 h under the same conditions as the cell culture. Each well was treated with 5 and 9 at 0, 1, 2, and 5 μM for B16F10 cells and 0, 1, 2, 5, 10, and 20 μM for HaCaT cells. The plates were incubated for 72 h for B16F10 cells and 24 h for HaCaT cells under a CO2 incubator. Each well was treated with the EZ-Cytox solution (10 μL), and the plate was left for 2 h under a CO2 incubator. Well optical density was measured at 450 nm to determine cytotoxicity.

With `O=c1cc(CO)occ1O` [kojic acid] the “depigmentation effect on zebrafish larvae” value [1] was “significant depigmentation effect”.

`Oc1ccc(-c2nc3cc4c(cc3s2)OCO4)cc1` [Compound 5, 4-([1,3]Dioxolo[4′,5′:4,5]benzo[1,2-d]thiazol-6-yl)phenol] was tested, and the melanin content ([2]; 1, 2, and 5 μM, IBMX 200 μM plus α-MSH 1 μM, 72 h) was “significantly reduced the stimulator-induced melanin contents”, the “melanin production inhibition compared with kojic acid” value ([2]; same concentration (5 μM)) was “inhibited melanin production more potently than kojic acid” and the cellular tyrosinase activity [3] was “significantly decreased the cellular tyrosinase activity”. For the same molecule, the Ki ([4]; Dixon plot, read-out: inhibition constant (Ki)) was 46 µM, the mechanism of inhibition ([4]; Lineweaver–Burk plot) was “competitive inhibitors” and the inhibition at 50 µM ([5]; substrate L-dopa) was 63.3%. For the same molecule, the inhibition at 50 µM ([5]; substrate L-tyrosine) was 61.4%, the “number of cells strongly stained with melanin (in situ tyrosinase)” value [6] was “evidently reduced the number of cells strongly stained with melanin” and the “cytotoxicity (cell viability)” value [7] was “None of the compounds revealed significant cytotoxicity up to 20 μM”.
